The record followed here is patent US5543530A, “4-arylisoindole analgesics” (Ortho Pharmaceutical Corporation, priority 1993, dated 1996).

As a reminder, the % Inhibition is the change of the read-out against control, counted positive when it falls. Read a high % Inhibition as strong suppression. A word on the ED50: it is the dose that gives a 50% effect, or the effect in half of the subjects.

The test system of the first assay is Acetylcholine-Bromide Induced Abdominal Constriction. The assay can be described thus: Mouse Acetylcholine Bromide-Induced Abdominal Constriction Assay. As to conditions: @10 mpk/ko (so in the source). The class given is in vivo. An excerpt:
Mouse Acetylcholine Bromide-Induced Abdominal Constriction Assay
The mouse acetylcholine-induced abdominal constiction assay, as described by Collier et al. in Brit. J. Pharmacol. Chem. Ther., 32:295-310, 1968, with minor modifications was used to assess analgesic potency of the compounds of formula (I). […] The mice were then placed in groups of three into glass bell jars and observed for a ten minute observation period for the occurrence of an abdominal constriction response (defined as a wave of constriction and elongation passing caudally along the abdominal wall, accompanied by a twisting of the trunk and followed by extension of the hind limbs). The percent inhibition of this response to a nociceptive stimulus (equated to % analgesia) was calculated as follows: The % Inhibition of response, i.e., % analgesia is equal to the difference between the No. of control animals response and the No. of drug-treated animals response times 100 divided by the No. of control animals responding.
At least 15 animals were used for control and in each of the drug treated groups. At least three doses were used to determine each dose response curve and ED50 (that dose which would produce 50% analgesia). The ED50 values and their 95% fiducial limits were determined by a computer assisted probit analysis.
Regarding `CN1C[C@@H]2CCC[C@@](O)(c3ccccc3)[C@@H]2C1` (single isomer, unassigned) [Cp-12, (-)-4β-Hydroxy-2-Methyl-4-Phenyl-3aα,7aα-Octahydroisoindole], the “% Inhibition” value came out at 90%.

Staying with this assay, now noted: @10 mpk/po.
For the compound `CN1C[C@@H]2CCC[C@@](O)(c3ccccc3)[C@@H]2C1` (single isomer, unassigned) [Cp-15, (+)-4β-Hydroxy-2-Methyl-4-phenyl-3aα,7aα-octahydroisoindole], the “% Inhibition” value is on record as 90%.

Still in this assay, the particulars now being: @30 mpk/po.
In the case of `COc1ccc([C@]2(O)CCC[C@H]3CN(C)C[C@H]32)cc1` (relative stereo) [Cp-3], the “% Inhibition” value was 46-93%.

Consider `O[C@@]1(c2cccc(C(F)(F)F)c2)CCC[C@H]2CN(Cc3ccccc3)C[C@H]21` (relative stereo) [Cp-18], for which the “% Inhibition” value turned out to be 71%.

Still in this assay, the particulars now being: @30 mpk/sc.
In the case of `COc1cccc([C@]2(O)CCC[C@H]3CN(Cc4ccccc4)C[C@H]32)c1` (relative stereo) [Cp-13], the “% Inhibition” value is recorded as 75%.

Still in this assay, the particulars now being: Mus musculus, 0.5 h; po; 5.5 mg/kg i.p. acetylcholine bromide 30 minutes after drug; read-out: ED50 (dose which would produce 50% analgesia).
Regarding `CN1C[C@@H]2CCC[C@@](O)(c3cccs3)[C@@H]2C1` (relative stereo) [Cp-1], the ED50 worked out at 7.3 mg/kg.

Consider `CN1C[C@@H]2CCC[C@@](O)(c3ccc(F)cc3)[C@@H]2C1` (relative stereo) [Cp-4], for which the ED50 is 0.76 mg/kg.

`CN1C[C@@H]2CCC[C@@](O)(c3cccc4ccccc34)[C@@H]2C1` (relative stereo) [Cp-5]: the ED50 was determined as 16.6 mg/kg.

In the case of `CN1C[C@@H]2CCC[C@@](O)(c3cccnc3)[C@@H]2C1` (relative stereo) [Cp-6], the ED50 worked out at 30.4 mg/kg.

As to `CN1C[C@@H]2CCC[C@@](O)(c3cccc(F)c3)[C@@H]2C1` (relative stereo) [Cp-7], the ED50 is 5.38 mg/kg.

With `CN1C[C@@H]2CCC[C@@](O)(c3cccc(C(F)(F)F)c3)[C@@H]2C1` (relative stereo) [Cp-8], the ED50 stood at 2.08 mg/kg.

With `CN1C[C@@H]2CCC[C@@](O)(c3ccccn3)[C@@H]2C1` (relative stereo) [Cp-9], the ED50 stood at 15.4 mg/kg.

As for `CN1C[C@@H]2CCC[C@@](O)(c3ccc(Cl)cc3Cl)[C@@H]2C1` (relative stereo) [Cp-11], the ED50 came to 1.36 mg/kg.

`CN1C[C@@H]2CCC[C@@](O)(c3ccccc3)[C@@H]2C1` (relative stereo) [Cp-16]: the ED50 was determined as 3.9 mg/kg.

On to `O[C@@]1(c2cccc(C(F)(F)F)c2)CCC[C@H]2CNC[C@H]21` (relative stereo) [Cp-19], for which the ED50 came to 4.2 mg/kg.

Consider `O[C@@]1(c2ccc(C(F)(F)F)cc2)CCC[C@H]2CN(Cc3ccccc3)C[C@H]21` (relative stereo) [Cp-20], for which the ED50 turned out to be 10.7 mg/kg.
